Values of other authors as cited in US20070037740A1, “Combination therapy with glatiramer acetate and alphacalcidol for the treatment of multiple sclerosis” (priority 2003, published 2007).

How the values were obtained:
[1] = test system: murine experimental autoimmune encephalomyelitis (EAE)
[2] = test system: multiple sclerosis
[3] = daily subcutaneous injections, 20 mg/injection

Molecule: C=C1/C(=C\C=C2/CCC[C@]3(C)[C@@H]([C@H](C)CCCC(C)(C)O)CC[C@@H]23)C[C@@H](O)C[C@@H]1O [1α,25-dihydroxycholecalciferol]
- progression of murine EAE ([1]; administered after the induction of EAE): prevents the progression
- development of murine EAE ([1]; mouse, in vivo): prevents the development

Molecule: L-glutamic acid polymer with L-alanine, L-lysine and L-tyrosine, acetate (salt) [glatiramer acetate]
- appearance of "black holes" [2, 3]: reduce
- appearance of new lesions by magnetic resonance imaging (MRI) [2, 3]: reduce
- progression of disability [2, 3]: reduce
- relapse rates [2, 3]: reduce
- effective in treating multiple sclerosis (MS) ([2]; in vivo): effective
